Data from patent US12723233B2, “Media and methods for differentiating natural killer cells” (STEMCELL Technologies Canada Inc., priority 2018, dated 2026).
“Also recorded” adds a separate entry of the source.

What was measured:
NK cell progenitors = test: Differentiation of cord blood CD34+-derived NK cell progenitors to CD56+ NK cells (culture days 14-28), flow cytometry and cell counts; format: cell-based, Human
Method: Human CB samples were obtained from Bloodworks NW (Seattle, WA) and CD34^+ cells were isolated using EasySep™ Human Cord Blood CD34 Positive Selection Kit II (STEMCELL Technologies, Catalogue #17896). Obtained in this way the purity of CD34^+ cells is typically higher than 90%.
The wells of a 24-well plate were coated with StemSpan™ Lymphoid Differentiation Coating Supplement (STEMCELL Technologies, Catalogue #09925) and 5000 CD34^+ cells were plated per well. The CD34^+ cells were cultured for up to 14 days in StemSpan™ SFEM II (STEMCELL Technologies, Catalogue #09605, 09655) supplemented with Lymphoid Progenitor Expansion Supplement (STEMCELL Technologies, Catalogue #09915) with media changes every 3-4 days.
After 14 days in culture, CD34^+ cell-derived NK cell progenitors were harvested. 50,000 NK cell progenitors were plated per well of an uncoated tissue culture 24-well plate. The plated NK cell progenitors were cultured for up to two weeks in NK Cell Differentiation medium (i.e StemSpan™ SFEM II (STEMCELL Technologies, Catalog # 09605, 09655) supplemented with NK Cell Differentiation Supplement (STEMCELL Technologies, Catalogue #09950), and cultured for an additional two weeks with media changes every 3-4 days. UM729 or UM171 was added to supplemented NK Cell Differentiation Medium on days 14-28. On day 28 cells were harvested for analysis or downstream applications.
Harvested cells were stained and measured by flow cytometry for expression of the NK cell lineage marker CD56. Dead cells were excluded by light scatter profile and 7-AAD or DRAQ7 staining. The results in FIGS. 1 and 2 at condition “0” (plotted on the x-axis) indicate the frequency and yield of CD56^+ NK cells that result from experiments that follows the protocol described above but in the absence of UM171 or UM729. Cell counts were obtained using the NucleoCounter NC250. Yield was calculated by dividing the resulting cell number by the number of cells initially seeded. Yields of specific cell types were obtained by multiplying total yield by cell frequency.
Cells were cultured as described in Example 1, with the exception that the up to two week culture of NK cell progenitors (i.e. culture days 14-28) in NK Cell Differentiation medium occurred in the presence or absence of UM171 or UM729.
The effects of UM171 and UM729 were tested across a range of concentrations: 0 nM, 50 nM, 100 nM, 150 nM and 200 nM for UM171; and 0 μM, 0.25 μM, 0.5 μM, 1 μM, and 2 μM for UM729.
CD34^+ CB cells were isolated and cultured as described in Example 1 up to the day 14 time point. Day 14 NK cell progenitors were further cultured in NK Cell Differentiation medium, essentially as described in Example 1, except in the absence of an added pyrimidoindole compound but in the presence or absence of 5 μM CH223191.

[1] = tested on: differentiated CD56+ NK cells; test: Flow cytometry of NK cell, maturity and T cell markers on differentiated CD56+ NK cells at day 28; format: cell-based, Human; settings: 100 nM UM171, day 28
Method: CD56^+ NK cells were differentiated as described in Examples 1 and 2 in the presence of 1 μM UM729 and analyzed on day 28 by flow cytometry for the expression of known NK cell markers. Cells were stained with fluorescence-conjugated antibodies against indicated NK cell markers for 15 min at 4° C. Non-specific binding was blocked using FcR blocker and 5% human or rat serum. Dead cells were excluded by light scatter profile and 7-AAD or DRAQ7 staining. Prepared samples were analyzed by flow cytometry.
CD56^+ NK cells were differentiated as described in Examples 1 and 2 in the presence of 1 μM UM729 and analyzed on day 28 by flow cytometry for the expression of known NK cell markers. The cells were stained for the markers described in this Example essentially as described in Example 3. Staining for KIR molecules was performed using a combination of two clones for the antibody, 180704 and HP-MA4, as each recognizes a distinct subset of KIR molecules. Dead cells were excluded by light scatter profile and 7-AAD or DRAQ7 staining.
Production of IFNγ by the differentiated CD56^+ NK cells was also measured. For IFNγ intracellular staining, differentiated CD56^+ NK Cells were stimulated with PMA/Ionomycin for 2 hours. Brefeldin A was added and the cells were incubated for another 2 hours. The cells were harvested and stained for CD56 and Zombie NIR viability dye then fixed, permeabilized and stained for intracellular IFNγ.
CD56^+ NK cells were differentiated as described in Examples 1 and 2 in the presence of pyrimidoindole compounds and analyzed on day 28 by flow cytometry for the expression of a T cell marker. The analyzed cells were stained for CD3 essentially as described in Example 3. Dead cells were excluded by light scatter profile and 7-AAD or DRAQ7 staining.

CD34+ HSPC = test: Differentiation of CD34+ HSPC into CD7+CD5+ NK cell progenitors (days 0-14), CD7 and CD5 expression at day 14; format: cell-based, Human; settings: day 0-14 culture medium supplemented with 100 nM UM171, day 14
Method: (§1) […] CB cells were isolated and cultured as described in Example 1. As in Example 1 and 2 the different media were used in the day 0-14 and the day 14-28 cultures, except the day 0-14 culture medium was further supplemented with 100 nM UM171 to investigate its effect on the differentiation of CD4^+ HSPC to NK cells.
(§2) In these experiments UM171 was added to the cultures at different time points: days 0-14 (+/−); days 14-28 (−/+); or days 0-28 (+/+). Cultures without UM171 were also set up (−/−). Cells were either analyzed at day 28 for CD56 expression (FIG. 8) or at day 14 for CD7 and CD5 expression (FIG. 9).

[2] = tested on: Cord blood-derived CD34+ HSPC cells; test: UM171 added at different times of the day 0-28 NK differentiation culture, CD56 expression at day 28; format: cell-based, Human; settings: analyzed at day 28
Method: as §1, §2

[3] = reported; cited from earlier work
[4] = 5 μM CH223191, no added pyrimidoindole compound, day 14 NK cell progenitors
[5] = 100 nM UM171, normalized to STD cultures, n=15
[6] = tested 0, 50, 100, 150, 200 nM, days 14-28
[7] = 100 nM UM171 between days 0-14 (+/−)
[8] = 100 nM UM171 between days 14-28 (−/+)

Compound	CD56+ NK cell frequency compared to absence of CH223191 (NK cell progenitors; [4])	CD56+ NK cell yield compared to absence of CH223191 (NK cell progenitors; [4])	Expression of CD3 among differentiated cells ([1]; cord blood sample of a first donor)	Expression of CD3 among differentiated cells ([1]; cord blood sample of a second donor)	Frequency of CD7+CD5+ NK cell progenitors compared to cultures not supplemented with UM171 (CD34+ HSPC)	Yield of CD7+CD5+ NK cell progenitors compared to cultures not supplemented with UM171 (CD34+ HSPC)	Frequency of CD56+ NK cells compared to cultures lacking UM171 (NK cell progenitors; 100 nM UM171, 14 days culture of NK cell progenitors, paired t-test p=0.013)	Increase of average frequency of NK cells compared to culture conditions not including a pyrimidoindole compound (NK cell progenitors; [5])	Increase of average yield of NK cells compared to culture conditions not including a pyrimidoindole compound (NK cell progenitors; [5]) [fold]	Concentration at which frequency of CD56+ NK cells appeared to be highest (NK cell progenitors; [6]) [nM]	Concentration at which yield of CD56+ NK cells appeared to be highest (NK cell progenitors; [6]) [nM]	CD56+ cell frequency compared to cultures lacking UM171 on days 0-14 (−/−) [2, 7]	CD56+ cell yield compared to cultures lacking UM171 on days 0-14 (−/−) [2, 7]	NK cell frequency compared to cultures lacking UM171 (−/−) [2, 8]	NK cell yield compared to cultures lacking UM171 (−/−) [2, 8]	Effect of inclusion of UM171 during days 14-28 on CD56+ NK cell frequency and yield in the (+/+) condition ([2]; 100 nM UM171 days 0-28 (+/+))	Potency relative to UM729 [3]
Cc1ccccc1N=Nc1ccc(NC(=O)c2ccnn2C)c(C)c1 [CH223191]	decreased	decreased	–	–	–	–	–	–	–	–	–	–	–	–	–	–	–
Cn1nnc(-c2ccc3c(c2)[nH]c2nc(Cc4ccccc4)nc(N[C@H]4CC[C@H](N)CC4)c23)n1 [UM171, (1r,4r)-N^1-(2-benzyl-7-(2-methyl-2H-tetrazol-5-yl)-9H-pyrimido[4,5-13]indol-4-yl)cyclohexane-1,4-diamine]	–	–	virtually absent; also recorded: do not express CD3	virtually absent; also recorded: do not express CD3	clear reduction	clear reduction	increased significantly	~ 30%	2	100	100	lower	lower	increase	increase	can compensate for the effects of this compound on day 0-14 cultures	approximately 10 ×
